This note sets out measurements from ChEMBL document CHEMBL1125239, “Synthesis and biological evaluation of 5-deazaisofolic acid, 5-deaza-5,6,7,8-tetrahydroisofolic acid, and their N9-substituted analogues” (J Med Chem, 1991).

One may read the Km as the concentration of substrate that gives half-maximal velocity. In general, Ki refers to the dissociation constant of the complex between target and ligand, obtained from inhibition or displacement.

Data set [1] deals with Bifunctional purine biosynthesis protein ATIC (Homo sapiens, UniProt P31939). Nature of the data set: Inhibition of 5-aminoimidazole-4-carboxamide AICAR formyltransferase in MOLT-4 cells. The class given is cell-based. As to conditions: read-out: I50.
Sequence of Bifunctional purine biosynthesis protein ATIC (P31939 whole entry): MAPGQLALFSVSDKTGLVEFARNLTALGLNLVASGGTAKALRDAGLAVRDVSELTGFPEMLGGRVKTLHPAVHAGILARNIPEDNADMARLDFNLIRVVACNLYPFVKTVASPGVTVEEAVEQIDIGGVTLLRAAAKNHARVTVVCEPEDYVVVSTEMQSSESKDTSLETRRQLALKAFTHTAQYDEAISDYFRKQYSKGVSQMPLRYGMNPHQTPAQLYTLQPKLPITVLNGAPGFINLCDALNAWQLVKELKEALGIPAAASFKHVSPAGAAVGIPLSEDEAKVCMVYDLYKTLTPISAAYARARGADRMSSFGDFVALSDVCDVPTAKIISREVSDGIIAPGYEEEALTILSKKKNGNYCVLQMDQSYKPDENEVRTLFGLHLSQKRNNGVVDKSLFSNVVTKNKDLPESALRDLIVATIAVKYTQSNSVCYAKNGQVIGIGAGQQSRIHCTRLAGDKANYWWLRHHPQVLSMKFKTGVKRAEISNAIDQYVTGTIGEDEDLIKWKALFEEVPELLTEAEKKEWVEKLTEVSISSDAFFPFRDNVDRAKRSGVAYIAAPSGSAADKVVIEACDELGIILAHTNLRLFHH
The species entered for data set [2] is Sus scrofa. Kind of data set: (§1) Compound was evaluated for the substrate activity for hog liver Folyl-polyglutamate synthase.
Data set [3] concerns MOLT-4. Nature of the data set: Inhibition of the uptake of [3H]MTX influx into MOLT-4 cells. The class given is functional, cell-based, Homo sapiens.
Data set [4] addresses Thymidylate synthase (Homo sapiens, UniProt P04818). Nature of the data set: Inhibition of thymidylate synthase (TS) in human. As to conditions: read-out: I50.
For data set [5], the target named is T1, Dihydrofolate reductase (Homo sapiens, UniProt P00374).
T1 sequence (P00374 whole entry): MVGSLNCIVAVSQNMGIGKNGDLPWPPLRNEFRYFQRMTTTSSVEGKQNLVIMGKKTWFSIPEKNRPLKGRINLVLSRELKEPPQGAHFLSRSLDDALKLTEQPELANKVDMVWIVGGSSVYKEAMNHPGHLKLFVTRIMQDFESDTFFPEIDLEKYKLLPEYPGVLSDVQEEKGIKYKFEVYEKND
Kind of data set: Inhibition of dihydrofolate reductase (DHFR) in WIL2 cells. The format is cell-based. As to conditions: read-out: I50.

The test system of data set [6] is MCF7. Nature of the data set: Effective dose which is required to inhibit 50% of the cell growth of MCF-7 cells in culture. As to conditions: Homo sapiens, read-out: ED50 (the source's name). The class given is functional.
Data set [7] can be described thus: Ratio of relative Vmax values to that of apparent Km values. The format is ADME.
Data set [8] concerns Folyl-polyglutamate synthase. The description is as §1. The format is ADME, tissue-based, Sus scrofa. As to conditions: pig, hog liver folylpolyglutamate synthase; read-out: Km app.
For data set [9], the species on record is Sus scrofa. Nature of the data set: Compound was evaluated for the substrate activity for hog liver […] synthetase.

Sequence of Thymidylate synthase (P04818 whole entry): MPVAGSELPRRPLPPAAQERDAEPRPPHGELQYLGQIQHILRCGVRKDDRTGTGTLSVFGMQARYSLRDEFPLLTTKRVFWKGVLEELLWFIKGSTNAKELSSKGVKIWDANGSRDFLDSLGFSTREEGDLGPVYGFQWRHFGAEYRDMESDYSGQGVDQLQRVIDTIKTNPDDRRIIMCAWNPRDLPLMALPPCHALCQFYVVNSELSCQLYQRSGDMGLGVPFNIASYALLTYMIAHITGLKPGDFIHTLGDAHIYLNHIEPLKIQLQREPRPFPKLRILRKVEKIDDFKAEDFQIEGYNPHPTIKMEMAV

Turning to `Nc1nc(O)c2cc(NCc3ccc(C(=O)NC(CCC(=O)O)C(=O)O)cc3)cnc2n1` (configuration not stated), the figures for the IC50 in data set [1], in data set [4] and in [5] were 62.8 µM, 7.1 µM and 0.21 µM, respectively. Moreover, in data set [2], the Km was 133 µM. In addition, in data set [3], the Ki was more than 30 µM. Further, the EC50 in data set [6] is more than 100 µM.

`Nc1nc(O)c2c(n1)NCC(NCc1ccc(C(=O)NC(CCC(=O)O)C(=O)O)cc1)C2` (configuration not stated): the IC50 is more than 100 µM in data set [1], more than 100 µM in [4] and more than 1000 µM in data set [5]. Also, in [2], the Km was found to be 67.4 µM. The same molecule returned a Ki in [3] of 17.5 µM. Also, the Ratio in [7] was 1. The EC50 in data set [6] was 1.2 µM.

With `CN(Cc1ccc(C(=O)NC(CCC(=O)O)C(=O)O)cc1)c1cnc2nc(N)nc(O)c2c1` (configuration not stated), the IC50 in [1] was found to be 141 µM; in data set [4] it was 0.48 µM; in [5], 0.25 µM. For the same molecule, in data set [2], the Km was 55.3 µM. Besides, the Ratio in [7] stood at 0.85. Moreover, the EC50 in [6] came out at 35 µM.

With `Nc1nc(O)c2cc(N(C=O)Cc3ccc(C(=O)NC(CCC(=O)O)C(=O)O)cc3)cnc2n1` (configuration not stated), the values for the IC50 in [1], in data set [4] and in data set [5] were 49.9 µM, 28.8 µM and 1.95 µM, respectively. Also, in [2], the Km is more than 100 µM. In data set [6], the EC50 is more than 100 µM.

Consider `Nc1nc(N)c(CCCNc2ccc(C(=O)N[C@@H](CCC(=O)O)C(=O)O)cc2)c(O)n1`, for which the Km in data set [8] came out at 6.7 µM. In addition, the inhibition constant Ki in [3] was 1 µM. In addition, the IC50 in data set [4] and in data set [5] was more than 100 µM in each case. The Ratio in data set [7] was found to be 14.9. Also, in data set [6], the EC50 came to 0.037 µM.

`CN(Cc1ccc(C(=O)NC(CCC(=O)O)C(=O)O)cc1)C1CNc2nc(N)nc(O)c2C1` (configuration not stated): the values for the IC50 in data set [1], in data set [4] and in data set [5] were more than 100 µM, more than 100 µM and more than 1000 µM, respectively. For the same molecule, in data set [9], the Km was determined as 9.4 µM. This molecule also gave a Ki in data set [3] of 22 µM. Besides, the Ratio in [7] is listed as 7. Besides, the EC50 in [6] worked out at 4.5 µM.

On to `Nc1nc(O)c2c(n1)NCC(CCc1ccc(C(=O)NC(CCC(=O)O)C(=O)O)cc1)C2` (configuration not stated), for which, in data set [2], the Km was 17.5 µM. The affinity in data set [3], expressed as Ki, was 1.5 µM. The IC50 is more than 1000 µM in [4] and more than 100 µM in data set [5]. Also, the EC50 in [6] was found to be 0.018 µM.
